Peptide text beside a SMILES is read from it. * marks the point of attachment. Biotin = O=C1N[C@H]2[C@H](CS[C@H]2CCCCC(=O)*)N1
Tests used:
HeLa cells = test: Length of time the peptides remain in cells (degradation, immunofluorescence)
Procedure: HeLa cells were treated with 10 μM R9, wtNIP, or scNIP for one hour and harvested at indicated time points before they were analyzed by immunofluorescence microscopy staining with an […].
Immunofluorescence microscopy: Exponentially growing cultures of cells were plated on sterile, […] coverslips, and incubated for 24 hours at 37° C. in 5% CO2 humidified air before they are treated with the NIP peptides at room temperature. Coverslips were washed with PBS and fixed with 4% paraformaldehyde-0.25% Triton X-100 for 15 minutes at room temperature, blocked for 30 minutes at room temperature, and incubated with FITC-conjugated streptavidin or anti-γH2AX and phospho-NBS1 antibodies (Rockland Immunochemicals, Gilbertsville, Pa.) for 1 hour at room temperature. Coverslips were then mounted with Vectashield Elite (Vector Labs, Burlingame, Calif.) and observed with a Leica fluorescence microscope. Images were captured at 40× magnification using a Q Imaging Retiga Exi digital camera and analyzed with Image Pro-Plus 5.1 software.
Because the peptides would be used in radiation studies, the length of time the peptides remain in cells was determined to ensure that the peptides would be present throughout the DNA repair process after IR.

NBS1 binding to MRE11 = target: T1, NBS1 binding to MRE11 (Homo sapiens, UniProt P49959); test: Co-immunoprecipitation of MRE11 with NBS1 in peptide-treated cells; assay type: cell-based; conditions: HeLa cells, four hours after peptide treatment
T1 construct: endogenous in cells; host or cells: HeLa
T1 sequence (P49959 1-708): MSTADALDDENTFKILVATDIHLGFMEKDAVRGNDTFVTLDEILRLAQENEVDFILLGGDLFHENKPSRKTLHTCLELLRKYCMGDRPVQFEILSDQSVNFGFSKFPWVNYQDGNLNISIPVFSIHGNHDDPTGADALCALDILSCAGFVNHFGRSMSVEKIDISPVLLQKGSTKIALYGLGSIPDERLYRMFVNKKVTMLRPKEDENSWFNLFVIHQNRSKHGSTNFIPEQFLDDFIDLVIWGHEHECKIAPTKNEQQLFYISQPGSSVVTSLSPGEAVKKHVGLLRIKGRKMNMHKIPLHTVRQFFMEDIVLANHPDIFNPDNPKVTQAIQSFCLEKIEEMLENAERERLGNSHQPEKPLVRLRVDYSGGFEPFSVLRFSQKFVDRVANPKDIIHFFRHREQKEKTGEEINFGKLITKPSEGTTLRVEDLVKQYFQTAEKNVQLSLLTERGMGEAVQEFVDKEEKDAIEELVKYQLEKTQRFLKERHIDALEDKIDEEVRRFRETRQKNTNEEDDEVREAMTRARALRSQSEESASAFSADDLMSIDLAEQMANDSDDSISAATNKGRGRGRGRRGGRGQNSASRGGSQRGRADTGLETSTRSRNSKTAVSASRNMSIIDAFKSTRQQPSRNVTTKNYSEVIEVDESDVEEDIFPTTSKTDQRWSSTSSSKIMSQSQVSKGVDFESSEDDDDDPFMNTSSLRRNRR
Procedure: HeLa cells treated with the NIP peptides were irradiated (0 or 6Gy). Immunoprecipitation was performed with a rabbit NBS1 antibody, and Western blotting was performed with monoclonal antibodies against ATM, NBS1 or MRE11.
Immunoprecipitation and Western blotting: For co-immunoprecipitation of ATM, NBS1 and MRE11, cells were lysed 1 hour in ice-cold lysis buffer, which consisted of 10 mM Tris-HCl (pH 7.5), 100 mM NaCl, 5 mM EDTA, 0.5% NP-40, 5 mM Na3VO4, 1 mM NaF, and 1 mM PMSF. After centrifugation, supernatants were incubated with indicated antibodies. After extensive washing with the lysis buffer, immunoprecipitates were analyzed by immunoblot using specific antibodies. For western blotting analysis, samples (cell lysates or immunoprecipitates) were separated on 4-12% SDS-poly-acrylamide gels, transferred to nitrocellulose membranes, and probed with various antibodies.
wtNIP Abrogated the NBS1-ATM Interaction: To investigate whether R9-conjugated NIP peptides could inhibit NBS1-ATM interactions, coimmunoprecipitation experiments were performed in cells treated with the NIP peptides. Four hours after peptide treatment, HeLa cells were harvested and subjected to immunoprecipitation using an anti-NBS1 antibody. The immunoprecipitates were then blotted with anti-ATM, NBS1, and MRE11 antibodies.

[1] = tested on: γ-H2AX foci in HeLa cells; test: IR-induced γ-H2AX focus formation, HeLa; assay type: cell-based, human
Excerpt: Error bars represent +/−1 SD, graphed are the mean of three independent experiments.
wtNIP Inhibits IR-Induced γ-H2AX and NBS1 pSer343 Focus Formation: One of the earliest responses to IR-induced DNA damage is the formation of γ-H2AX foci, which requires functional ATM (Burma et al., 2001; Furuta et al., 2003). […] Immunofluorescence microscopy was used to detect the presence of γ-H2AX foci in mock-irradiated or irradiated cells in the presence of R9, wtNIP or scNIP. […] Therefore, IR-induced γ-H2AX focus formation can be inhibited by wt-NIP.

CC(C)C[C@H](NC(=O)[C@H](CC(=O)O)NC(=O)[C@H](CC(=O)O)NC(=O)[C@H](C)NC(=O)[C@H](CC(C)C)NC(=O)[C@H](CO)NC(=O)[C@H](CCC(=O)O)NC(=O)[C@H](CCC(=O)O)NC(=O)[C@H](CCCCN)NC(=O)[C@H](CCCNC(=N)N)NC(=O)[C@H](CCCNC(=N)N)NC(=O)[C@H](CCCNC(=N)N)NC(=O)[C@H](CCCNC(=N)N)NC(=O)[C@H](CCCNC(=N)N)NC(=O)[C@H](CCCNC(=N)N)NC(=O)[C@H](CCCNC(=N)N)NC(=O)[C@H](CCCNC(=N)N)NC(=O)[C@H](CCCNC(=N)N)NC(=O)CCCC[C@@H]1SC[C@@H]2NC(=O)N[C@@H]21)C(=O)O [wtNIP] (Biotin-RRRRRRRRRKEESLADDL-OH)
presence of peptides in cells (HeLa cells): strong distribution | NBS1 binding to MRE11 (NBS1 binding to MRE11): did not interfere with NBS1 binding to MRE11 | average number of γ-H2AX foci/nucleus ([1]; 10 μM peptide, 30 minutes after 6Gy IR): 6.9 foci/nucleus | inhibition of γ-H2AX foci formation ([1]; 30 minutes after treatment with 6Gy IR): can inhibit γ-H2AX foci formation
